Data as given in PubChem BioAssay (NCI).
Several values for one entry are separate records, joined by “and”; a condition that tells them apart may be missing. Identical values can stand only once.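 Values below derive from 48-hour exposures of cells grown in 96-well plates, with endpoints linearly interpolated between the two concentrations bracketing the appropriate inhibition level. The concentration for 50% growth inhibition is given as GI50. TGI: total growth inhibition.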

What was measured:
Test in all cases: NCI-60 cell line screen, 48 h
NCI-H522 lung = system: NCI-H522 lung
OVCAR-8 ovarian = system: OVCAR-8 ovarian
A498 renal = system: A498 renal
HOP-92 NSCLC = system: HOP-92 NSCLC
OVCAR-5 ovarian = system: OVCAR-5 ovarian
SK-OV-3 ovarian = system: SK-OV-3 ovarian
HT29 colon = system: HT29 colon
HCC-2998 colon = system: HCC-2998 colon
U251 CNS = system: U251 CNS
UO-31 renal = system: UO-31 renal

Row | SMILES | TGI (NCI-H522 lung) | TGI (OVCAR-8 ovarian) | TGI (A498 renal) | TGI (HOP-92 NSCLC) | TGI (OVCAR-5 ovarian) | TGI (SK-OV-3 ovarian) | TGI (HT29 colon) | TGI (HCC-2998 colon) | TGI (U251 CNS) [µM] | TGI (UO-31 renal) | GI50 (NCI-H522 lung) [µM] | GI50 (OVCAR-8 ovarian) [µM] | GI50 (A498 renal) | GI50 (HOP-92 NSCLC) [µM] | GI50 (OVCAR-5 ovarian) [µM] | GI50 (SK-OV-3 ovarian) [µM] | GI50 (HT29 colon) [µM] | GI50 (HCC-2998 colon) [µM] | GI50 (U251 CNS) [µM] | GI50 (UO-31 renal) [µM]
1 | O=c1nc(-c2ccccc2)cc(CC(O)c2ccc(Cl)c(Cl)c2)[nH]1 (stereo not drawn) | 90.8 µM | > 100 µM | 77.2 µM | > 100 µM | 82 µM | > 100 µM | > 100 µM | > 100 µM | > 100 | 99.3 µM |  |  |  |  |  |  |  |  |  | 
2 | COC(=O)c1cc2c(cc1Cl)SC1=NN(C)S(=O)N1S2(=O)=O (stereo not drawn) | > 100 µM | > 100 µM | > 100 µM | > 100 µM | > 100 µM | > 100 µM | > 100 µM | > 100 µM | > 100 | > 100 µM | > 100 | > 100 | 75 µM | 53.7 | > 100 | > 100 | > 100 | > 100 | > 100 | 70.2
3 | CSc1ncc(Br)c(Sc2nc(N)nc3nc[nH]c23)n1 | 20.3 µM | > 100 µM | 29 µM | 5.23 µM | > 100 µM | 10.3 µM | 60.5 µM | 16.2 µM | 57 | 11.2 µM | 3.97 | 3.78 | 3.62 µM | 0.456 | 4.98 | 1.62 | 4.09 | 2.56 | 10.3 | 1.94
4 | CC(=O)NC(CCCCN)C(=O)NCc1ccccc1 (stereo not drawn) | > 100 µM | > 100 µM | > 100 µM | > 100 µM | > 100 µM | > 100 µM | > 100 µM | > 100 µM | > 100 | > 100 µM |  |  |  |  |  |  |  |  |  | 
5 | N/C(=N\NS(=O)(=O)c1ccccc1)Oc1ccc(Br)cc1Br | > 100 µM | > 100 µM | > 100 µM | > 100 µM | > 100 µM | > 100 µM | > 100 µM | > 100 µM | > 100 | > 100 µM |  |  |  |  |  |  |  |  |  | 
6 | Oc1c(Cl)cc(Cl)c2ccc(Cn3cc(-c4cc(C(F)(F)F)cc(C(F)(F)F)c4)nn3)nc12 | 3.55 µM | 9.94 µM | 10.8 µM | 4.03 µM | 9.23 µM | 30.1 µM | 5.1 µM | 21.4 µM | 16.8 | 5.51 µM | 1.25 | 2.79 | 2.6 µM | 1.45 | 2.9 | 16.4 | 2.04 | 7.72 | 4.52 | 1.6
7 | CC1=C2C(=CC(C)(C)[C@@H]2O)C(=O)[C@](C)(O)C12CC2 | 0.0484 µM and < 0.0232 µM | 0.182 µM and 1.29 µM | 0.0499 µM and 0.0553 µM | 0.0887 µM and 0.0712 µM | 0.0954 µM and 0.0374 µM | 0.213 µM and 0.0676 µM | 0.208 µM and 0.0713 µM | 0.079 µM and 0.0423 µM |  | 0.0655 µM and 0.0768 µM | 0.0137 | 0.0294 | 0.0183 µM and 0.0108 µM | 0.0268 |  | 0.0294 | 0.00623 | 0.0237 | 0.0169 | 0.0174
8 | Cc1cc(NC(=O)C2C3C=CC(O3)C2C(=O)O)no1 (stereo not drawn) | > 100 µM | 32.6 µM | > 100 µM | > 100 µM | > 100 µM | > 100 µM | > 100 µM | > 100 µM | 53.8 | > 100 µM |  |  |  |  |  |  |  |  |  | 
9 | O=C(Nc1ccc(F)cc1F)c1cc(Cl)ccc1O | 10.8 µM | 13.3 µM | 0.902 µM | 0.942 µM | > 100 µM | 4.85 µM | > 100 µM | 9.51 µM | 16 | 6.18 µM | 0.974 | 2.38 | 0.257 µM | 0.232 | 4.4 | 0.722 | 3.62 | 2.97 | 1.38 | 1.15
10 | CC1(c2cc3c(cc2Br)OCO3)SCCCS1 | 7.36 µM | > 100 µM | > 100 µM | 51.7 µM | > 100 µM | > 100 µM | > 100 µM | 77.3 µM | > 100 | 85.1 µM |  |  |  |  |  |  |  |  |  | 
11 | O=S1(=O)N(Cc2ccccc2)[C@@H](Cc2ccccc2)[C@H](O)[C@H](O)[C@H](Cc2ccccc2)N1Cc1ccccc1 | 4.79 µM | 11.2 µM | 5.18 µM | 6.68 µM | 9.1 µM | 10.6 µM | 5.64 µM | 6.2 µM | 6.47 | 5.96 µM | 0.847 | 4.2 | 2.45 µM | 3.15 | 3.57 | 4.15 | 2.63 | 3.41 | 3.07 | 2.73
12 | Cc1cc(Nc2nc(C(=O)Nc3ccccc3)nc3ccccc23)n[nH]1 | > 25 µM | > 25 µM | > 25 µM | > 25 µM | > 25 µM | > 25 µM | > 25 µM | > 25 µM | > 25 | > 25 µM | 6.37 | 14.5 | 1.05 µM | 0.399 | > 25 | 12.8 | 17.6 | 17.7 | 5.71 | 1.3
13 | c1cc(-c2nnc(SSc3ncnc4nc[nH]c34)o2)ccn1 | > 100 µM | > 100 µM | > 100 µM | > 100 µM | > 100 µM | > 100 µM | > 100 µM | > 100 µM | > 100 | > 100 µM | 1.63 | 3.26 | 4.61 µM | 0.582 | 3.1 | 0.45 | 2.42 | 3.38 | 7.22 | 0.742
14 | Cc1cc(C)c2c(n1)sc1c(N)ncnc12 | > 25 µM | > 25 µM | > 25 µM | > 14 µM | > 25 µM | > 25 µM | > 25 µM | > 25 µM | > 25 | > 25 µM | > 25 | > 25 | 4.9 µM | 1.43 | > 25 | > 25 | 16.2 | > 25 | > 25 | 12.9
15 | Cc1cc(C)nc(/C(=N\NC(N)=O)C(=O)Nc2nc3ccc(C)cc3s2)c1 | > 100 µM | > 100 µM | > 100 µM | > 100 µM | > 100 µM | > 100 µM | > 100 µM | > 100 µM | > 100 | > 100 µM |  |  |  |  |  |  |  |  |  | 
16 | CCCCCCCCOC(=O)c1c(C)[nH]c(/C=C2\N=C(c3ccc[nH]3)C=C2OC)c1C | 4.02 µM | 13.8 µM | 2 µM | 0.228 µM | 3.45 µM | 15.9 µM | 1.43 µM | 3.46 µM | 1.65 | 0.108 µM | 0.0316 | 0.0459 | 0.19 µM | 0.0456 | 0.0943 | 0.899 | < 0.0179 | 0.0398 | 0.0258 | 0.0377
17 | CCOc1ccc(/C(C=O)=C(\Cl)c2ccc(OC)cc2)cc1 | > 100 µM | > 100 µM | > 100 µM | > 100 µM | > 100 µM | > 100 µM | > 100 µM | > 100 µM | > 100 | > 100 µM |  |  |  |  |  |  |  |  |  | 
18 | CCN1CCN(Cc2ccc(NC(=O)Nc3nc4ccc(Oc5ccnc(C(=O)NC)c5)cc4s3)cc2C(F)(F)F)CC1 | 3.59 µM | 4.49 µM | 3.54 µM | 3.91 µM | 3.93 µM | 3.36 µM | 3.42 µM | 3.67 µM | 3.45 | 3.4 µM | 1.68 | 2.11 | 1.83 µM | 1.94 | 2.12 | 1.82 | 1.27 | 2.05 | 1.85 | 1.83
